We go through 43 molecules from patent US5955616A, “Pyrrolidine derivatives having phospholipase A2 inhibitory activity” (Shionogi & Co., Ltd., priority 1995, dated 1999).

The target of the assay is T1, cPLA2 (Homo sapiens, UniProt P47712).
T1 sequence (P47712 1-749): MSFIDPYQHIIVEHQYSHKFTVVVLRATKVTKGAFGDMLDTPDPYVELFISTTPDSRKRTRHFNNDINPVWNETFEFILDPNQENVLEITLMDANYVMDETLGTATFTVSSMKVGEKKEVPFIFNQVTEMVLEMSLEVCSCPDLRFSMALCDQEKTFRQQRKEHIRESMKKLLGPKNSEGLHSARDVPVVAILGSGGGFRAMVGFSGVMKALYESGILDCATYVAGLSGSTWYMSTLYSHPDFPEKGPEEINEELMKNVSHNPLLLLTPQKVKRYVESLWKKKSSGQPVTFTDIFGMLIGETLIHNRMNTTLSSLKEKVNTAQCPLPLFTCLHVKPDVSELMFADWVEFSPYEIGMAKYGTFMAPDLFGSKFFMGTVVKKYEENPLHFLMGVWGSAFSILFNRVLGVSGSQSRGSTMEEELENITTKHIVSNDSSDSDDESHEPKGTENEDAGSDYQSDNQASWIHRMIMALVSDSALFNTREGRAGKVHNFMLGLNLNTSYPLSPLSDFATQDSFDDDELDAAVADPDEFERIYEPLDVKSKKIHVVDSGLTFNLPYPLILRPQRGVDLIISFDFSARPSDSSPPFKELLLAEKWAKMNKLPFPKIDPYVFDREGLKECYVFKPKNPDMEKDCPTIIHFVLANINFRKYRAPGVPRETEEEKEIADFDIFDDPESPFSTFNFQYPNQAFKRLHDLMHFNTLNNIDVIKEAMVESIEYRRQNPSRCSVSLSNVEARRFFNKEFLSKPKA
As to the kind of experiment: cPLA2 Inhibitory activity (release of radiolabelled fatty acid from liposomes). It counts as biochemical. As to conditions: 50 mM HEPES pH 7.4, 1 mM CaCl2, 2.5 μM radio-labeled phosphatidylcholine, 15 min at 37° C; read-out: cPLA2 Inhibition Activity IC50. As for the experimental part: Experiment 1 cPLA2 Inhibitory activity
The compounds of the present invention was tested for the cPLA2 inhibitory activity by a method known in a literature (R. M. Kramer, E. F. Roberts, J. Manetta and J. E. Putnam, J. Biol. Chem., 268(8), 5268-5272 ([…])), as outlined below.
As a substrate, liposomes which contain 1-palmitoyl-2-[^14 C]-arachidonoyl-sn-glycero-3-phosphocholine and sn-1,2-dioleoylglycerol at the ratio of 2:1 and have treated ultrasonically were used. The substrate was added to a 50 mM HEPES buffer (pH 7.4) (200 μl) containing 1 mM CaCl2, 2 mM dithiothreitol, 150 mM NaCl, 0.1 mg/ml BSA so as to make the concentration of radio-labeled phosphatidylcholine 2.5 μM. To the solution was added a compound of the present invention in DMSO (10 μl) to obtain reaction solutions each containing the test compound at 250 μM, 50 μM, 10 μm, 2 μM, and 0.4 μM. The reaction was allowed to start by adding an enzyme (cPLA2) (4 ng) and continued for 15 min at 37° C.
The amount of fatty acids released by the reaction was measured on a liquid scintillation counter. Control was obtained by conducting the experiment in the same manner except that a compound of the present invention was not added. The inhibitory activity was expressed as percent (%) to the control value, which was used for the calculation of the concentration required for 50% inhibition (IC50, μM).
Usually IC50 stands for the concentration that gives 50% inhibition. On to `O=C1NC(=O)/C(=C/c2ccc(NC(=O)[C@@H]3CC(OCc4ccc(C(F)(F)F)cc4)CN3C(=O)c3ccccc3)cc2)S1` (stereo partly shown) [Compound G-4], for which the IC50 was determined as 14 µM.

With `CN(C)S(=O)(=O)N1C[C@@H](SCc2ccccc2)C[C@H]1C(=O)Nc1ccc(C=C2SC(=S)NC2=O)cc1` [Compound A-32], the IC50 turned out to be 4.8 µM. Turning to `O=C1NC(=S)SC1=Cc1ccc(NC(=O)[C@@H]2C[C@H](SCc3ccccc3)CN2C(=O)c2ccccc2)cc1` [Compound A-2], the IC50 was 7.2 µM. To `CS[C@H]1C[C@@H](C(=O)Nc2ccc(/C=C3\SC(=O)NC3=O)cc2)N(S(=O)(=O)c2ccc(Br)cc2)C1` [Compound A-35] belongs 1.9 µM. To `O=C1NC(=S)SC1=Cc1ccc(NC(=O)[C@@H]2C[C@H](SCc3ccccc3)CN2)cc1` [Compound A-18] belongs 16 µM. Then `CS[C@H]1C[C@@H](C(=O)Nc2ccc(/C=C3\SC(=S)NC3=O)cc2)N(S(=O)(=O)c2ccc(Br)cc2)C1` [Compound A-34], with 6.3 µM; and `O=C1NC(=O)C(=Cc2ccc(S(=O)(=O)NCC3CC(SC(c4ccccc4)(c4ccccc4)c4ccccc4)CN3C(=O)c3ccccc3)cc2)S1` (stereo not shown) [Compound B-9], with 0.44 µM. With `Cc1cc(C)c(CS[C@H]2C[C@@H](C(=O)Nc3ccc(C=C4SC(=O)NC4=O)cc3)N(C(=O)c3ccccc3)C2)c(C)c1` [Compound A-10], the IC50 amounted to 3.8 µM. Take `O=C1NC(=O)/C(=C/c2ccc(NC(=O)[C@@H]3C[C@@H](SCc4ccccc4)CN3S(=O)(=O)c3ccc(-c4ccccc4)cc3)cc2)S1` [Compound M-1]: the IC50 is 23 µM. Then `CS[C@H]1C[C@@H](C(=O)Nc2ccc(/C=C3\SC(=O)NC3=O)cc2)N(S(=O)(=O)c2ccc3ccccc3c2)C1` [Compound A-50], with 12 µM.

For `CC(=O)N1C[C@@H](SCc2ccccc2)C[C@H]1C(=O)Nc1ccc(C=C2SC(=S)NC2=O)cc1` [Compound A-14], the IC50 was 18 µM. `O=C1NC(=O)/C(=C/c2ccc(NC(=O)[C@@H]3CC(OCc4ccc(F)cc4)CN3C(=O)c3ccccc3)cc2)S1` (stereo partly shown) [Compound G-2]: the IC50 worked out at 20 µM.

On to `CC(=O)Oc1ccc(OC(C)=O)c(CCCCCCC(=O)N2C[C@@H](OC(c3ccccc3)c3ccccc3)C[C@H]2CNC(=O)c2ccc(/C=C3\SC(=O)NC3=O)cc2)c1` [Compound H-15], for which the half-maximal inhibitory concentration (IC50) came out at 11 µM. Then `O=CN1C[C@@H](SCc2ccccc2)C[C@H]1C(=O)Nc1ccc(C=C2SC(=S)NC2=O)cc1` [Compound A-13], with 20 µM; and `COC1C[C@@H](CNC(=O)c2ccc(/C=C3\SC(=O)NC3=O)cc2)N(S(=O)(=O)c2ccc(Cc3ccccc3)cc2)C1` (stereo partly shown) [Compound H-4], with 26 µM. Then `CC(C)(C)OC(=O)N1CC(OCc2ccc(F)cc2F)C[C@H]1CNC(=O)c1ccc(/C=C2\SC(=S)NC2=O)cc1` (stereo partly shown) [Compound H-7], with 11 µM; and `O=C1NC(=O)/C(=C/c2ccc(C(=O)NC[C@@H]3C[C@H](OC(c4ccccc4)c4ccccc4)CN3C(=O)c3cccc(OCN4C(=O)c5ccccc5S4(=O)=O)c3)cc2)S1` [Compound H-12], with 6.2 µM. Then `CC(C)=CCC/C(C)=C/COC1C[C@@H](C(=O)Nc2ccc(/C=C3\SC(=O)NC3=O)cc2)N(C(=O)c2ccccc2)C1` (stereo partly shown) [Compound G-1], with 9 µM; and `CS[C@H]1C[C@@H](C(=O)Nc2ccc(C=C3SC(=S)NC3=O)cc2)N(C(=O)CCc2ccccc2)C1` [Compound A-22], with 21 µM. In the case of `O=C1NC(=O)/C(=C/c2ccc(CCC[C@@H]3C[C@H](SC(c4ccccc4)(c4ccccc4)c4ccccc4)CN3C(=O)CCc3ccccc3)cc2)S1` [Compound E-3], the IC50 worked out at 0.85 µM. For `O=C1NC(=O)C(=C(CO)c2ccc(NC(=O)C3CC(OC(c4ccccc4)(c4ccccc4)c4ccccc4)CN3C(=O)c3ccccc3)cc2)S1` (stereo not shown) [Compound I-2], the IC50 stood at 3.5 µM. To `CS[C@H]1C[C@@H](C(=O)Nc2ccc(C=C3SC(=S)NC3=O)cc2)N(C(=O)c2ccc(C(F)(F)F)cc2)C1` [Compound A-15] belongs 15 µM; to `Cc1ccc(CS(=O)(=O)N2CC(OCc3ccc(F)cc3F)C[C@H]2CNC(=O)c2ccc(/C=C3\SC(=O)NC3=O)cc2)cc1` (stereo partly shown) [Compound H-3], 14 µM. In the case of `CC(C)(C)[Si](C)(C)N1C(=O)C[C@H]1C(=O)N1C[C@@H](OC(c2ccccc2)c2ccccc2)C[C@H]1CNC(=O)c1ccc(/C=C2\SC(=O)NC2=O)cc1` [Compound H-14], the IC50 was 8.2 µM. In the case of `O=C1NC(=O)/C(=C/c2ccc(NC(=O)[C@@H]3C[C@H](NCc4ccccc4)CN3C(=O)Cc3ccc(Br)cc3)cc2)S1` [Compound J-1], the IC50 was 21 µM.

Consider `O=C1NC(=O)/C(=C/c2ccc(C(=O)NC[C@@H]3CC(OCc4ccc(F)cc4F)CN3S(=O)(=O)Cc3ccc(Br)cc3)cc2)S1` (stereo partly shown) [Compound H-2], for which the IC50 stood at 8.1 µM. To `O=C1NC(=O)/C(=C/c2ccc(NC(=O)[C@@H]3CC(OCc4ccc(Cl)cc4)CN3C(=O)c3ccccc3)cc2)S1` (stereo partly shown) [Compound G-3] belongs 17 µM.

As for `O=C1NC(=O)/C(=C/c2ccc(C(=O)NC[C@@H]3CC(OC(c4ccccc4)c4ccccc4)CN3C(=O)c3ccccc3)cc2)S1` (stereo partly shown) [Compound H-1], the concentration for half-maximal inhibition (IC50) is 6.7 µM. To `CCCCCCCCCCCCCC(=O)N1C[C@@H](SC)C[C@H]1C(=O)Nc1ccc(C=C2SC(=S)NC2=O)cc1` [Compound A-19] belongs 4.3 µM; to `O=C1NC(=S)SC1=C[C@@H]1C[C@H](SCc2ccccc2)CN1S(=O)(=O)c1ccc(-c2ccccc2)cc1` [Compound F-2], 10 µM.

Turning to `O=C1NC(=S)S/C1=C\c1ccc(NC(=O)[C@@H]2CCCN2C(=O)Cc2ccc(Br)cc2)cc1` [Compound L-1], the IC50 came to 5.3 µM. Then `O=C1NC(=O)/C(=C/c2ccc(COC[C@@H]3C[C@H](SC(c4ccccc4)(c4ccccc4)c4ccccc4)CN3C(=O)CCc3ccccc3)cc2)S1` [Compound E-1], with 1.1 µM; and `O=C1NC(=O)/C(=C/c2ccc(S(=O)(=O)NC[C@@H]3CC(OCc4ccc(F)cc4F)CN3S(=O)(=O)c3ccc(Cc4ccccc4)cc3)cc2)S1` (stereo partly shown) [Compound H-20], with 6.6 µM; and `O=C1NC(=O)/C(=C/c2ccc(NC(=O)[C@@H]3CC(OC(c4ccccc4)c4ccccc4)CN3C(=O)c3ccccc3)cc2)S1` (stereo partly shown) [Compound G-9], with 4.2 µM. To `O=C1NC(=O)C(=C(CO)c2ccc(NC(=O)[C@@H]3CC(OC(c4ccccc4)c4ccccc4)CN3C(=O)c3ccccc3)cc2)S1` (stereo partly shown) [Compound I-1] belongs 26 µM; to `O=C1NC(=O)C(=Cc2ccc(COC3CC(CNC(=O)c4ccc(-c5ccccc5)cc4)N(C(=O)c4ccccc4)C3)cc2)S1` (stereo not shown) [Compound N-1], 6.6 µM; to `CCCCS(=O)(=O)N1C[C@@H](SCc2ccccc2)C[C@H]1C(=O)Nc1ccc(C=C2SC(=S)NC2=O)cc1` [Compound A-31], 4.8 µM. In the case of `O=C1NC(=O)C(=Cc2ccc(OC[C@@H]3C[C@H](SCc4ccccc4)CN3C(=O)c3ccccc3)cc2)S1` [Compound E-5], the IC50 came to 7.7 µM.

For `O=C1NC(=S)O/C1=C\c1ccc(NC(=O)[C@@H]2C[C@H](SC(c3ccccc3)(c3ccccc3)c3ccccc3)CN2S(=O)(=O)c2ccc(-c3ccccc3)cc2)cc1` [Compound A-63], the IC50 was found to be 3.2 µM. To `CC(C)S(=O)(=O)N1C[C@@H](SCc2ccccc2)C[C@H]1C(=O)Nc1ccc(C=C2SC(=S)NC2=O)cc1` [Compound A-33] belongs 6.4 µM. Then `CC(C)(C)OC(=O)N1CC(OCc2ccc(F)cc2F)C[C@H]1CNC(=O)c1ccc(/C=C2\SC(=O)NC2=O)cc1` (stereo partly shown) [Compound H-6], with 1.7 µM; and `O=C1NC(=O)/C(=C/c2ccc(C(=O)NC[C@@H]3C[C@H](OC(c4ccccc4)c4ccccc4)CN3C(=O)c3ccc(OCN4C(=O)c5ccccc5S4(=O)=O)cc3)cc2)S1` [Compound H-13], with 4.4 µM; and `O=C1NC(=O)/C(=C/c2ccc(NC(=O)[C@H]3C[C@@H](SCc4ccccc4)CN3S(=O)(=O)c3ccc(-c4ccccc4)cc3)cc2)S1` [Compound M-3], with 10 µM.
